Laboratory results: US10124065B2, “Lipids and lipid compositions for the delivery of active agents” (Novartis AG, priority 2013, dated 2018)

Legend:
human leptin = test: Mouse subcutaneous injection of modified synthetic leptin mRNA, human leptin ELISA; format: in vivo; conditions: human leptin in mouse plasma, 10 μg leptin mRNA
Experimental: Prior to subcutaneous injection, mouse body weights were recorded and diet weighted, with mice grouped according to their body weights. The mice were manually restrained and placed on a work surface. Their scruffs were pinched and lifted away from the underlying muscle, the space into which was inserted a 25 gauge needle connected with a 1 ml syringe. The syringe plunger was pulled backwards in such a way as to ensure no fluid was drawn into the syringe, and then the desired volume of leptin mRNA was hand injected with moderate pressure and speed. The needle was then withdrawn and the mice returned to their cages.
8-9 week old, male C57BL/6 mice were used for the in vivo study. FPLC purified modified synthetic leptin mRNA (SEQ ID NO: 5) in which the uridines were substituted with pseudouridine (N:P molar ratio=8:1) packaged in multiple cationic lipid were diluted in injectable saline at a dose of 10 μg per average group body weight.
On day 0, animals were weighed and sorted according to average body weight. ice were dosed at 9 AM and blood was taken at 9 AM on day 0. Blood was also taken at 9 AM on each of days 1 and 2 and assessed for leptin protein levels. Body weight and food intake were also recorded.
Human leptin in mouse plasma was measured by ELISA. Antibodies purchased from the R&D Systems duoset (Cat# DY398E, part#840279 for capture antibody and part#840280 for detection antibody) were reconstituted using PBS and titered, again using PBS. The capture antibody was coated at 4 ug/ml in 30 ul/well on a white Nunc® Maxisorp 384 well plate (Cat#460372). After an overnight incubation at room temperature the capture antibody was aspirated and the plate blocked for 2 hours at room temperature with 90 ul/well of KPL milk blocker (Cat#50-82-00). Once the incubation was completed the plate was aspirated and recombinant standards and samples were added to the plate at 30 ul/well for 2 hours at 37° C. while shaking at 600 rpm. Sample/standard dilutions were made using casein sample diluent. Washing/aspiration 3 times with 100 ul/well followed, using Teknova plate wash solution (Cat# P1192). Next, detection antibody was diluted using casein detection antibody diluent to 12.5 ng/ml and added at 30 ul/well for 2 hours room temperature. After this incubation, the plate was washed again and a solution of poly-streptavidin-HRP (Cat#21140) at a 1:1250 dilution in HRP dilution buffer was added to each well (30 ul/well) and incubated for 30 minutes room temperature. A final wash/aspiration removed the HRP solution and a chemiluminescent substrate was added at 30 ul/well (Cat#1859678 & 1859679). The plate was quickly read using a SpectramaxM5 plate reader with a 50 ms integration time. The dynamic range of the ELISA is from 100-2,000 pg/ml (6.25-125 pM) of human leptin. The assay is applicable to plasma from mice, rats and cynomolgus monkeys.

[1] = Measurement of mRNA encapsulation (Quant-iT Ribogreen); format: physicochemical; conditions: leptin mRNA in lipid nanoparticles (cationic lipid, DSPC, cholesterol, stealth lipid)
Experimental: All equipment and disposable supplies were certified free of RNase activity by the manufacturer or rendered RNase free by use of the RNaseZap reagent (LifeTechnologies). mRNA was encapsulated at a cationic lipid amine to mRNA phosphate (N:P) molar ratio of 4:1. Lipids (cationic lipid, DSPC, cholesterol and lipidated PEG or stealth lipid) were dissolved in ethanol. The molar ratios were […], respectively. The mixture was sonicated briefly, then gently agitated for 5 minutes and then maintained at 37° C. until use. mRNA was exchanged into citrate buffer pH 5.8-6.0 by use of Amicon Ultra-15 centrifugal concentrators, and the final concentration was adjusted to 0.5 mg/ml and held at 37° C. until use. An equal volume of lipids in ethanol, mRNA in citrate buffer, and citrate buffer alone were drawn into disposable syringes. Tubing leading from syringes containing lipids and mRNA are attached to the T junction, and tubing leading from the syringe containing citrate buffer alone was paired with the tubing exiting the T-junction over a collection vessel containing a stir bar on an active stir plate. Syringes were placed in a syringe pump set to expel contents at a flow rate of 1 ml per minute.
The pump was activated, and the collected mRNA in lipid nanoparticles was transferred to SnakeSkin dialysis tubing (10,000 MWCO, Thermo Scientific). Material was dialyzed against RNAse- and pyrogen-free 1× phosphate buffered saline overnight at 4° C.
Percent encapsulation of mRNA in lipid nanoparticles was determined using the Quant-iT Ribogreen RNA Assay kit (Life Technologies). The LNP-mRNA suspension was assayed in buffer (mRNA outside the particle), and buffer plus Triton X-100 detergent (total mRNA). The difference calculated was the mRNA inside the particle. A 1000 ng/mL stock from the RNA provided in the kit was prepared and used to generate a standard curve (0 ng/ml, 15.63-1000 ng/ml) in TE and TE+0.75% Triton X-100. LNP-mRNA samples in TE buffer and TE buffer+0.75% Triton X-100 were prepared with appropriate dilution so that reading was in the range of standard curve (400-2,000 fold). In a 384-well plate (Costar non-treated #3573) 0.04 ml of standard (in duplicate) or sample (in triplicate) were added per well. Ribogreen reagent was diluted 240-fold in TE buffer and added 0.06 ml per well. The contents of wells were mixed and fluorescence was measured (excitation=480 nm, emission=520 nm). Background values (no RNA) were subtracted from standard and test sample values and the concentrations of RNA were determined in the samples using the standard curves. The percent encapsulation of the sample was determined by dividing the difference in concentrations between sample+triton and sample in buffer alone by the sample+triton concentration.

[2] = Polydispersity index (PDI) of lipid nanoparticle (dynamic light scattering); format: physicochemical
Experimental: Unless indicated otherwise, all PDIs referred to herein are the PDI of the fully formed nanoparticle, as measured by dynamic light scattering on a Malvern Zetasizer. The nanoparticle sample was diluted in phosphate buffered saline (PBS) so that the count rate was approximately 200-400 kcts. The data is presented in Tables 4 and 5 as a weighted average of the intensity measure.

% encapsulation [1] [%] | PDI ([2]; FVII siRNA LNP, Chol/DSPC/PEG-DMG, molar ratio 45/44/9/2) | PDI ([2]; FVII siRNA LNP, Chol/DSPC/S010, molar ratio 45/44/9/2) | PDI ([2]; PLK1-424 siRNA LNP, Chol/DSPC/S010 45/44/9/2) | PDI ([2]; leptin mRNA lipid nanoparticles) | Compound | Leptin expression SC-C57BI/6, 24 h (human leptin) [ng/mL]
– | – | – | – | – | CCCCC/C=C\C/C=C\CCCCCCCC(=O)OCCCCOc1cc(CN(C)C)cc(OCCCCOC(=O)CCCCCCC/C=C\C/C=C\CCCCC)c1 [Example 38, (9Z,9′Z,12Z,12′Z)-((5-((dimethylamino)methyl)-1,3-phenylene)bis(oxy))bis(butane-4,1-diyl)bis(octadeca-9,12-dienoate)] | 0.99
96.0 | 0.03 | 0.059 | 0.038 | 0.102 | CCCCCCCCCCOC(=O)CCCCCCCOc1cc(CN(C)C)cc(OCCCCCCCC(=O)OCCCCCCCCCC)c1 [Example 57, didecyl 8,8′-((5-((dimethylamino)methyl)-1,3-phenylene)bis(oxy))dioctanoate] | –
